The record followed here is ChEMBL document CHEMBL2029226, “Molecular Insights into Human Monoamine Oxidase B Inhibition by the Glitazone Anti-Diabetes Drugs” (ACS Med Chem Lett, 2012).

SMILES strings stand for the structures. Calls of active or inactive are those of the source. No cut-off for these calls is given here.

For data set [1], the target named is T1, Amine oxidase [flavin-containing] B (Rattus norvegicus, UniProt P19643).
T1 sequence (P19643 whole entry): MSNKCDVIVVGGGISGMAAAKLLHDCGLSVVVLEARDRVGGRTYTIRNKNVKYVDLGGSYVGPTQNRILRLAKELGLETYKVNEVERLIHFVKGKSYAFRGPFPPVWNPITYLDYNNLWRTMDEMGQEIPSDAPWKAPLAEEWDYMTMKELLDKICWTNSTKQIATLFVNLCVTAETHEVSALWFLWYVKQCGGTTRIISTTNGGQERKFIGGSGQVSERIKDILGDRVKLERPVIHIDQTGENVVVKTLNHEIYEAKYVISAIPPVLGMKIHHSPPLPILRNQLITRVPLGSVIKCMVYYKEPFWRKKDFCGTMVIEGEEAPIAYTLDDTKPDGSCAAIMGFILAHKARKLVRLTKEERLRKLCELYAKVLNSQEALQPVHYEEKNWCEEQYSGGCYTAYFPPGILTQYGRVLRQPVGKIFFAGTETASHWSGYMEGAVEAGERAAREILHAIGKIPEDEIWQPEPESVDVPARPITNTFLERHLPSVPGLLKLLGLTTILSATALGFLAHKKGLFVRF
Put plainly: Competitive inhibition of rat MAOB expressed in Pichia pastoris.

Data set [2] concerns the target T2, Amine oxidase [flavin-containing] A (Rattus norvegicus, UniProt P21396).
T2 sequence (P21396 whole entry): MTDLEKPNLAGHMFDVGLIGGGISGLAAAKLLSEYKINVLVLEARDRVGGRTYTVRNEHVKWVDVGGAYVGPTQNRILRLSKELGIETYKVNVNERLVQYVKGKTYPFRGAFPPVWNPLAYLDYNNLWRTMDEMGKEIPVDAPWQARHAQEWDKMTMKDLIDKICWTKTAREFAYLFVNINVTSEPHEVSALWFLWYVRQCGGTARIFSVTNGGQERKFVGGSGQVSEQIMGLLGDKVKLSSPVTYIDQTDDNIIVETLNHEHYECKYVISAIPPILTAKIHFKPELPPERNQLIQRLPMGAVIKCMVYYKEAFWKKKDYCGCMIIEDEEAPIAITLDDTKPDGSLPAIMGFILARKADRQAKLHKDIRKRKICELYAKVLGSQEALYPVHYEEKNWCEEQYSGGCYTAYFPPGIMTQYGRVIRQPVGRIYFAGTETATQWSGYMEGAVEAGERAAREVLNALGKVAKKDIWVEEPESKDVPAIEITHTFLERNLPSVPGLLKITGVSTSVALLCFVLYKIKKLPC
Put plainly: Inhibition of rat MAOA expressed in Pichia pastoris at 100 uM.

The target of data set [3] is T3, Amine oxidase [flavin-containing] A (Homo sapiens, UniProt P21397).
T3 sequence (P21397 whole entry): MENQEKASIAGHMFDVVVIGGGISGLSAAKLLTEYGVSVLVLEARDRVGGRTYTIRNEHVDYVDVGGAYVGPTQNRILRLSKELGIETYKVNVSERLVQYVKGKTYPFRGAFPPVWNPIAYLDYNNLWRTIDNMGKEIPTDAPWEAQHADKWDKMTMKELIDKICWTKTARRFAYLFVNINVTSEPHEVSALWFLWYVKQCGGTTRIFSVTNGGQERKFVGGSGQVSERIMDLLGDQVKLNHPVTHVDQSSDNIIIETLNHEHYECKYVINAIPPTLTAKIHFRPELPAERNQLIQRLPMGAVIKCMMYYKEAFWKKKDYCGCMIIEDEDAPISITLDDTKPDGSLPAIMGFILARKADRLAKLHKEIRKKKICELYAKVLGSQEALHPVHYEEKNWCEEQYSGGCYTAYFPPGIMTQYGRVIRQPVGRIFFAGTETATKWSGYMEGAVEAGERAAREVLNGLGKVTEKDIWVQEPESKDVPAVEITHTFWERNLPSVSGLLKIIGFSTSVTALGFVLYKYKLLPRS
The data set can be described thus: Inhibition of human MAOA expressed in Pichia pastoris at 100 uM.

Data set [4] has as its target Lysine-specific histone demethylase 1A (Homo sapiens) (UniProt O60341). Put plainly: Inhibition of human histone demethylase LSD1 up to 100 uM.
Data set [5] has as its target T4, Amine oxidase [flavin-containing] B (Homo sapiens, UniProt P27338).
T4 sequence (P27338 whole entry): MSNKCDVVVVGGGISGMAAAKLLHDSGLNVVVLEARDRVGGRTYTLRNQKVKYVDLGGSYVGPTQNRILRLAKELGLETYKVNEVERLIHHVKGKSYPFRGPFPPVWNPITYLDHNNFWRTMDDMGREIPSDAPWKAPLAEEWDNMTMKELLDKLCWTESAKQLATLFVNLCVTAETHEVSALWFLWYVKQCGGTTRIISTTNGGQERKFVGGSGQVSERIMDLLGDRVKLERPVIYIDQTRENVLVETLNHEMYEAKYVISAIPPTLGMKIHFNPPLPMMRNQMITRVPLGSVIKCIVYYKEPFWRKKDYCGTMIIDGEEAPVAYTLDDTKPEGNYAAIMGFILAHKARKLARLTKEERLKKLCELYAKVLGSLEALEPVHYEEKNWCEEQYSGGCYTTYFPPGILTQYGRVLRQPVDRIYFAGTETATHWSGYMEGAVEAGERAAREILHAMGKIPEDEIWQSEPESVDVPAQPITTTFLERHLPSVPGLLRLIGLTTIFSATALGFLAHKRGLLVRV
The data set can be described thus: Competitive inhibition of human MAOB expressed in Pichia pastoris.

Data set [6] addresses T2, Amine oxidase [flavin-containing] A. The data set can be described thus: Competitive inhibition of rat MAOA expressed in Pichia pastoris.
Data set [7] addresses T3, Amine oxidase [flavin-containing] A. The data set can be described thus: Competitive inhibition of human MAOA expressed in Pichia pastoris.
Data set [8] concerns the target T1, Amine oxidase [flavin-containing] B. Put plainly: Uncompetitive inhibition of rat MAOB expressed in Pichia pastoris.
The target in data set [9] is T3, Amine oxidase [flavin-containing] A. The data set can be described thus: Uncompetitive inhibition of human MAOA expressed in Pichia pastoris.
For data set [10], the target named is T4, Amine oxidase [flavin-containing] B. Put plainly: Uncompetitive inhibition of human MAOB expressed in Pichia pastoris.
Data set [11] concerns the target T2, Amine oxidase [flavin-containing] A. Put plainly: Uncompetitive inhibition of rat MAOA expressed in Pichia pastoris.

The Ki is a dissociation constant, usually derived from enzyme kinetics or from competition with a known ligand. Low values mean a stronger hold on the target, high ones a looser hold on the target. The compound `CCc1ccc(CCOc2ccc(CC3SC(=O)NC3=O)cc2)nc1` (racemic) [PIOGLITAZONE] had an inhibition constant (Ki) in data set [1] of 2.1 µM. Also, the “inhibition (INH)” value in [2] and in data set [3] was “Not Active” throughout. Moreover, the inhibition result in data set [4] is “inactive”.
In the case of `CN(CCOc1ccc(CC2SC(=O)NC2=O)cc1)c1ccccn1` (racemic) [ROSIGLITAZONE], the Ki in data set [1] amounted to 5.8 µM; in data set [5] it was 4.2 µM; in data set [6], 32.6 µM; in data set [7], 27.6 µM. Moreover, the inhibition result in [4] was “inactive”.
Take `Cc1c(C)c2c(c(C)c1O)CCC(C)(COc1ccc(CC3SC(=O)NC3=O)cc1)O2` (centres undefined) [TROGLITAZONE]: the Ki in [8] amounted to 10.9 µM; in [9], 10.5 µM; in data set [10], 9.5 µM; in [11] it was 4.8 µM. Besides, in [4], the inhibition result is “inactive”.
